Laboratory results taken from patent US8153589B2, “JNK3 as a target for the treatment of angiogenesis-related diseases” (The University of North Carolina at Chapel Hill, priority 2009, dated 2012).

Tests used:
Assay type in all cases: cell-based, bovine
eNOS = eNOS Ser 1177 phosphorylation, Western blot in BAECs
Procedure: (§1) Cells were harvested in lysis buffer (1% Triton X-100, 50 mM Tris, pH 7.4, 150 mM NaCl, 1 mM Na3VO4 and 0.1% protease inhibitor tablet; Roche) and clarified by centrifugation at 16,000 g. Equal amounts of proteins were incubated with a specific antibody overnight at 4° C. with gentle rotation. Protein A/G Plus-agarose beads (Santa Cruz Biotechnology, Santa Cruz, Calif.) were used to pull down the antibody complexes. Afterward, beads were washed with lysis buffer, and immune complexes were separated by SDS-PAGE. Total cell lysates were separated by SDS-PAGE and transferred to nitrocellulose membranes.
The degree of SDF-1α-induced activation of eNOS was examined in bovine aortic endothelial cells (BAECs) by monitoring phosphorylation of the Ser 1177 activation site in eNOS. […] Phosphorylation of Ser 1177 peaked at 5 minutes after SDF-1α stimulation (FIG. 1A), and increased in a dose-dependent fashion over a SDF-1α concentration range of 50 ng/ml to 500 ng/ml (FIG. 1B), which approximates physiologically relevant SDF-1α concentrations.

BAECs [1] = assay: Scratch wound healing assay; details: 50 ng/ml SDF-1alpha, no inhibitor
Procedure: For detection of cell migration, a wound healing assay was performed as previously described (40). BAECs were grown on 35 mm wells, the monolayer was scratched with a sterile disposable rubber policeman and the edge labeled with a traced line. After injury, the cells were gently washed with normal media without serum. EC migration from the edge of the injured monolayer was quantified by measuring the area between the wound edges before and the recovered area after injury using light microscopy (Eclipse TS100, 4× objective, Nikon) and the computer program ImageJ.
To determine whether eNOS activation is required for SDF-1α-mediated endothelial cell migration, we performed scratch-wound healing and Boyden chamber migration assays in the presence of the NOS-specific inhibitor L-NMMA (19). Confluent BAECs were pretreated for one hour with 1 mM or 5 mM L-NMMA or vehicle prior to each assay. […] Similarly, cell migration in Boyden chambers was induced by SDF-1α (from 8±3 to 86±5 cells per field), but this increase in migration was inhibited by the pre-incubation of BAECs with L-NMMA (FIG. 1D). The involvement of eNOS in SDF-1α-induced endothelial cell migration was confirmed by treatment of cells with siRNAs specific for eNOS. […]

BAECs [2] = assay: Boyden chamber migration assay
Procedure: Boyden chamber assays were performed as previously described (40, 41) using a 48-well chamber apparatus (NeuroProbe, Cabin John, Md.). The lower chambers of the apparatus were filled with DMEM with or without SDF-1alpha and then covered with the collagen-coated filter and the upper chambers. Cells pretreated with or without the indicated inhibitors were then added to the upper chambers. After incubating for 6 h at 37° C., cells present on the lower surface were fixed, stained and identified with the 40× objective lens on a Nikon Eclipse TS 100 inverted microscope.
To determine whether eNOS activation is required for SDF-1α-mediated endothelial cell migration, we performed scratch-wound healing and Boyden chamber migration assays in the presence of the NOS-specific inhibitor L-NMMA (19). Confluent BAECs were pretreated for one hour with 1 mM or 5 mM L-NMMA or vehicle prior to each assay. […] Endothelial cells were transfected with 1 of 3 different bovine eNOS-specific siRNAs, or mixture of all three, and 72 hours later cell lysates were examined by western blot analysis for levels of eNOS protein.

JNK3 = assay: JNK activation (phospho-JNK Western blot) in BAECs; details: BAECs
Procedure: as §1
Mitogen-activated protein kinases (MAPKs), including ERK1/2 and p38, have been reported to enhance angiogenesis (20, 21). However, the role of JNK in angiogenesis remains controversial, with studies showing both positive and negative outcomes of JNK activation. In order to determine which MAPKs are involved in SDF-1α-induced endothelial cell migration, we screened the activities and expression levels of ERK1/2, p38 and JNK following treatment of BAECs with SDF-1α. […] SDF-1α activated both JNK and ERK1/2 in a dose-dependent manner (FIG. 2B). […] Protein and mRNA for all three JNK isoforms, JNK1, JNK2 and JNK3, can be found in BAECs (FIGS. 5, A&B). In order to determine which JNK protein(s) was activated by SDF-1α in these cells we used a previously described assay (22). Exogenous JNK1, JNK2 and JNK3 proteins containing Flag or GFP-epitopes were transiently expressed in BAECs and their activities were determined via western blotting with a phospho-JNK antibody following SDF-1α treatment. […] To confirm the finding that JNK3 is the only JNK entity activated by SDF-1α, we transfected cells with siRNAs for each of the JNK proteins and then tested the effect of each siRNA for the ability to suppress SDF-1α-induced JNK activation. […] Because JNK3 was the only SDF-1α-activated JNK in endothelial cells in our studies (FIG. 2C & FIG. 5, C), we consider the phospho-JNK signals in western blots with anti-phospho-JNK antibody as the signals for activated JNK3.

ERK1/2 = ERK1/2 activation, Western blot in BAECs; details: BAECs, SDF-1α 50 ng/ml
Procedure: as §1
(§2) Mitogen-activated protein kinases (MAPKs), including ERK1/2 and p38, have been reported to enhance angiogenesis (20, 21). However, the role of JNK in angiogenesis remains controversial, with studies showing both positive and negative outcomes of JNK activation. In order to determine which MAPKs are involved in SDF-1α-induced endothelial cell migration, we screened the activities and expression levels of ERK1/2, p38 and JNK following treatment of BAECs with SDF-1α. […] SDF-1α activated both JNK and ERK1/2 in a dose-dependent manner (FIG. 2B). […] Exogenous JNK1, JNK2 and JNK3 proteins containing Flag or GFP-epitopes were transiently expressed in BAECs and their activities were determined via western blotting with a phospho-JNK antibody following SDF-1α treatment. […]

p38 = p38 activation, Western blot in BAECs; details: SDF-1α treatment
Procedure: as §1, §2

BAECs [3] = assay: In vitro Matrigel angiogenesis (tube formation) assay; details: 50 ng/ml SDF-1α, control siRNA cells
Procedure: Endothelial cell tube formation was analyzed with the Matrigel-based tube formation assay (40, 41). Chilled 24-well plates were coated with growth factor-reduced Matrigel (Becton Dickinson, San Jose, Calif.) that was polymerized at 37° C. for 30 min. BAECs were transfected with siRNA constructs with the Amaxa Nucleofector electroporation reagent. Three days later, cells were trypsinized, and plated at equal numbers into each Matrigel-coated well. After 18 hours of incubation in the absence or presence of SDF-1alpha, the formation of tubes was photographed (Eclipse, 10× objective, TS100Nikon). Images were quantified with ImageJ.
Endothelial cell migration is a critical step for tube formation during angiogenesis. To test the importance of JNK3 in highly ordered cell assembly processes, we examined the effect of JNK knockdown with siRNAs on the formation of capillary-like tubes in Matrigel. BAECs were transfected with JNK1 siRNA, JNK2 siRNA, JNK3 siRNA or control siRNA. After 72 hours, cells were plated on Matrigel in medium containing 50 ng/ml SDF-1α.

Substance: SDF-1α
- time of peak phosphorylation of eNOS Ser 1177 after stimulation (eNOS; 50 ng/ml SDF-1alpha): 5 min
- eNOS phosphorylation (Ser 1177) (eNOS; 50 ng/ml to 500 ng/ml SDF-1α): time- and dose-dependent manner
- BAEC migration towards the wounded area (BAECs [1]): 56.0±12.0%
- cell migration in Boyden chambers (BAECs [2]; 50 ng/ml SDF-1alpha, no inhibitor (FIG. 1D)): 86±5 cells per field
- endothelial cell migration (BAECs [2]; control-transfected BAECs, 50 ng/ml SDF-1alpha (FIG. 4F)): 125±9 cells/field
- phosphorylation of exogenous Flag/GFP-tagged JNK1, JNK2, JNK3 (JNK3; 50 ng/ml SDF-1alpha for 5 minutes): only phosphorylation of JNK3 (but not JNK1 or JNK2) was increased
- JNK activity (JNK3; SDF-1α 50 ng/ml): potently induced
- ERK1/2 activity (ERK1/2): potently induced
- p38 activation (p38): not significantly activated
- tube length (BAECs [3]): 605±106 μm
